Assay results: PMC4942689, “Deciphering the function of the CNGB1b subunit in olfactory CNG channels” (Scientific Reports, 2016)

Legend:
[1] = molecular target: T1, CNGA2RE:B1b (Rattus norvegicus, UniProt A0A8I5ZN27+Q00195, R538E); experiment: Ligand binding, confocal patch-clamp fluorometry; set-up: key to Ligand binding to CNGB1b: +: ligand binding to the respective modulatory subunits was either observed or not; −: ligand binding to the respective modulatory subunits was either observed or not; details: 10 μM; construct CNGA2RE:B1b
T1 construct: expressed in transfected cells; host or cells: Xenopus laevis oocytes (cRNA injection), excised patches
Excerpt: (§1) The channels to be studied were expressed in Xenopus oocytes. We first tested the subunit composition in our channels when coexpressing different combinations of subunits by single-channel recordings. For CNGA2:A4, CNGA2:B1b and CNGA2:A4:B1b channels we exclusively obtained the specific and easily distinguishable single-channel activity reported earlier when injecting respective amounts of RNA[7][13]. We therefore assumed that the channels formed had always the expected subunit composition. The specific binding of cyclic nucleotides and the activation of the CNG channels were measured in parallel by means of confocal patch-clamp fluorometry in excised patches, using fluorescent cyclic nucleotide derivatives. The method has been described previously.
(§2) To study ligand binding to the CNGB1b subunit selectively, the binding domain of the CNGA2 subunits was disabled by either the point mutation R538E (red crosses in the cartoons) or T539M (blue crosses in the cartoons)[13][20]. […] To this end, CNGB1b was coexpressed with CNGA2RE.
(§3) The ligand binding was measured in macropatches by patch-clamp fluorometry[41][42] combined with confocal microscopy. […] Recordings were performed with an LSM 510 or 710 confocal microscope (Zeiss, Jena, Germany) and were triggered by the ISO3 software (MFK, Niedernhausen, Germany). To distinguish between the fluorescence of the unbound ligands from that of the bound ligands, a second dye, DY647 (Dyomics, Jena, Germany), was added to the bath solution. The 543-nm and 633-nm lines of a He-Ne laser were used to excite fcAMP/fcGMP and DY647, respectively. The method of confocal patch-clamp fluorometry has been described in detail previously.

[2] = molecular target: T2, CNGA2TM:B1b (Rattus norvegicus, UniProt A0A8I5ZN27+Q00195, T539M); experiment: Ligand binding, confocal patch-clamp fluorometry; set-up: key to Ligand binding to CNGB1b: +: ligand binding to the respective modulatory subunits was either observed or not; −: ligand binding to the respective modulatory subunits was either observed or not
T2 construct: expressed in transfected cells; host or cells: Xenopus laevis oocytes (cRNA injection), excised patches
Excerpt: as §1, §2, §3

[3] = molecular target: T3, CNGA2RE:A4RE:B1b (Rattus norvegicus, UniProt A0A8I5ZN27+Q00195+Q64359, R430E/R538E); experiment: Ligand binding, confocal patch-clamp fluorometry; set-up: key to Ligand binding to CNGA4 / Ligand binding to CNGB1b: +: ligand binding to the respective modulatory subunits was either observed or not; −: ligand binding to the respective modulatory subunits was either observed or not
T3 construct: expressed in transfected cells; host or cells: Xenopus laevis oocytes (cRNA injection), excised inside-out patches
Excerpt: as §1
(§4) To verify the hypothesis that the CNGB1b subunit in CNGA2:A4:B1b channels binds cyclic nucleotides, we coexpressed CNGB1b with CNGA4RE and either CNGA2RE or CNGA2TM and measured ligand binding in the presence of 10 μM fcGMP. […] To verify the specificity of the binding to the CNGB1b subunit in these heterotetrameric channels, we coexpressed the CNGB1bRE subunit with CNGA2RE and CNGA4RE.
as §3

[4] = molecular target: T4, CNGA2RE:A4RE:B1bRE (Rattus norvegicus, UniProt A0A8I5ZN27+Q00195+Q64359, R1106E/R430E/R538E); experiment: Ligand binding, confocal patch-clamp fluorometry; set-up: key to Ligand binding to CNGA4 / Ligand binding to CNGB1b: +: ligand binding to the respective modulatory subunits was either observed or not; −: ligand binding to the respective modulatory subunits was either observed or not
T4 construct: expressed in transfected cells; host or cells: Xenopus laevis oocytes (cRNA injection), excised inside-out patches
Excerpt: as §1, §4, §3

[5] = molecular target: T5, CNGA2TM:A4RE:B1b (Rattus norvegicus, UniProt A0A8I5ZN27+Q00195+Q64359, R430E/T539M); experiment: Ligand binding, confocal patch-clamp fluorometry; set-up: key to Ligand binding to CNGA4 / Ligand binding to CNGB1b: +: ligand binding to the respective modulatory subunits was either observed or not; −: ligand binding to the respective modulatory subunits was either observed or not
T5 construct: expressed in transfected cells; host or cells: Xenopus laevis oocytes (cRNA injection), excised inside-out patches
Excerpt: as §1, §4, §3

[6] = molecular target: T6, CNGA2TM:A4RE:B1bRE (Rattus norvegicus, UniProt A0A8I5ZN27+Q00195+Q64359, R1106E/R430E/T539M); experiment: Ligand binding, confocal patch-clamp fluorometry; set-up: key: +: ligand binding to the respective modulatory subunits was either observed or not; −: ligand binding to the respective modulatory subunits was either observed or not; details: 10 μM; construct CNGA2TM:A4RE:B1bRE
T6 construct: expressed in transfected cells; host or cells: Xenopus laevis oocytes (cRNA injection), excised inside-out patches
Excerpt: as §1
To verify the hypothesis that the CNGB1b subunit in CNGA2:A4:B1b channels binds cyclic nucleotides, we coexpressed CNGB1b with CNGA4RE and either CNGA2RE or CNGA2TM and measured ligand binding in the presence of 10 μM fcGMP. […]
The ligand binding was measured in macropatches by patch-clamp fluorometry[41][42] combined with confocal microscopy. […] To distinguish between the fluorescence of the unbound ligands from that of the bound ligands, a second dye, DY647 (Dyomics, Jena, Germany), was added to the bath solution. […]

[7] = tested on: CNGA2TM:A4 channels; set-up: method as in PMID 22786723; details: cited from earlier work
[8] = tested on: CNGA4; set-up: method as in Nache et al., 2012; key: +: ligand binding to the respective modulatory subunits was either observed or not; −: ligand binding to the respective modulatory subunits was either observed or not; details: 10 μM; construct CNGA4; ref Nache et al., 2012; cited from earlier work
[9] = tested on: CNGB1b; set-up: method as in Nache et al., 2012; key: +: ligand binding to the respective modulatory subunits was either observed or not; −: ligand binding to the respective modulatory subunits was either observed or not; details: 10 μM; construct CNGB1b; ref Nache et al., 2012; cited from earlier work
[10] = tested on: CNGA2TM:A4RE; set-up: method as in Nache et al., 2012; key: +: ligand binding to the respective modulatory subunits was either observed or not; −: ligand binding to the respective modulatory subunits was either observed or not; details: 10 μM; construct CNGA2TM:A4RE; ref Nache et al., 2012; cited from earlier work
[11] = tested on: homotetrameric CNGA2RE (R538E) channels; set-up: method as in Nache et al., 2012; details: Equation 1, ref Nache et al., 2012; cited from earlier work
[12] = 10 μM, construct CNGA2RE:A4RE:B1b
[13] = 10 μM, construct CNGA2RE:A4RE:B1bRE
[14] = 10 μM, construct CNGA2TM:A4RE:B1b

T5 sequence (Q00195 whole entry T539M): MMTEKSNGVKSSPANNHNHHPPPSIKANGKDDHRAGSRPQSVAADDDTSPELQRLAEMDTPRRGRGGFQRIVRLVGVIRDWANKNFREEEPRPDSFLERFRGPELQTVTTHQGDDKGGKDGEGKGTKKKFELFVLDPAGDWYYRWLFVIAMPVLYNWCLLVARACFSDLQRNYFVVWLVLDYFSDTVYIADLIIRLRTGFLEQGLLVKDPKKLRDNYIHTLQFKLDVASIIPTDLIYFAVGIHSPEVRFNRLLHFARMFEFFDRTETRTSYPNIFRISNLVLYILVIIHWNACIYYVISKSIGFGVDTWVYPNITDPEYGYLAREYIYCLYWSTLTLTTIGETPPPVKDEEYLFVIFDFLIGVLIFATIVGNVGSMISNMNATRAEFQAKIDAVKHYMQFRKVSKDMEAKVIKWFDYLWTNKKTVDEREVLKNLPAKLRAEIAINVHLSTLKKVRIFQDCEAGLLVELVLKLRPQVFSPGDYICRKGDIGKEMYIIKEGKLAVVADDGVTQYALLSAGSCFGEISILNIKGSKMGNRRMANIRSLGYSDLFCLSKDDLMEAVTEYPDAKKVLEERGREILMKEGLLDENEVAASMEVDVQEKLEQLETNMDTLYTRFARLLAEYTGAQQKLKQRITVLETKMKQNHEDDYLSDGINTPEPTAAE
T5 sequence (Q64359 whole entry R430E): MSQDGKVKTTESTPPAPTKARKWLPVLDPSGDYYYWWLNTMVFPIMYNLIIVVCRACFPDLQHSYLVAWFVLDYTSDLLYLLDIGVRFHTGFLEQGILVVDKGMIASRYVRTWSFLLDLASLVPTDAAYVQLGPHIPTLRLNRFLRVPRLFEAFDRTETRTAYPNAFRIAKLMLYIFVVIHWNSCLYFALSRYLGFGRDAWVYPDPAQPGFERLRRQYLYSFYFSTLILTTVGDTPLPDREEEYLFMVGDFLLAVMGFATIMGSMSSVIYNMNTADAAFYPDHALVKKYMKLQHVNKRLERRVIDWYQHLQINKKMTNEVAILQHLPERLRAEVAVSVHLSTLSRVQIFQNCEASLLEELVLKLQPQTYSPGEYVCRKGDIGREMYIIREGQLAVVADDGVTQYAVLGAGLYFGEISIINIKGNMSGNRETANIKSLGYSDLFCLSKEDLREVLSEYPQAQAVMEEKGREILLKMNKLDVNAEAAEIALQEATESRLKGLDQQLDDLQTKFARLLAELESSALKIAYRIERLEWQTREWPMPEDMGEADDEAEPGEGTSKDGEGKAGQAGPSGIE
T5 sequence (A0A8I5ZN27 1-858 isoform A0A8I5ZN27-2, stated change not applied): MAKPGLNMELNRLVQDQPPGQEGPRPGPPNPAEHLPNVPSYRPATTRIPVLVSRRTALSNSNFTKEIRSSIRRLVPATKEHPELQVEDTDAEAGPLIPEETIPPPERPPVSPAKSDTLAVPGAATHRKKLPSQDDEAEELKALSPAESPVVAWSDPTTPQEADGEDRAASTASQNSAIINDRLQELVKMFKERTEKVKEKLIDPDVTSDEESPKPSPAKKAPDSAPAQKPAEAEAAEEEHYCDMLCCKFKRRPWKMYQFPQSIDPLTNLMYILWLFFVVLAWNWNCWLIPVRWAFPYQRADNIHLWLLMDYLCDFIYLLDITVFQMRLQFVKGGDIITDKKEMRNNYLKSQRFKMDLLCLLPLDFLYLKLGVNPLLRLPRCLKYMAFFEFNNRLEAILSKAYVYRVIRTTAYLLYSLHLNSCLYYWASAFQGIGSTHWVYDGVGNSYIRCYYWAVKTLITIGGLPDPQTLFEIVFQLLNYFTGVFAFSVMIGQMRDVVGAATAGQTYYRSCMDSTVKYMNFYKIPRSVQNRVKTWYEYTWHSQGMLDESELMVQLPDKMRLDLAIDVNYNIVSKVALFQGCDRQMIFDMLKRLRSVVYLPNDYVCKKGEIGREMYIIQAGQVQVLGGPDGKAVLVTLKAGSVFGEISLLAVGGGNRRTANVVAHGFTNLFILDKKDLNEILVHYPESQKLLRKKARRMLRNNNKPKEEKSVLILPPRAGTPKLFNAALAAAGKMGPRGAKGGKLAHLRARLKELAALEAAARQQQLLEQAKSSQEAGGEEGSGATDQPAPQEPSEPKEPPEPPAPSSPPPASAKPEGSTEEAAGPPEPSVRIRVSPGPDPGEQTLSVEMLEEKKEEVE
T4 sequence (Q00195 whole entry R538E): as the sequence (Q00195 whole entry T539M) above, with R538E, M539T counted along it
T4 sequence (Q64359 whole entry R430E): as the sequence (Q64359 whole entry R430E) above
T4 sequence (A0A8I5ZN27 1-858 isoform A0A8I5ZN27-2 R657E): as the sequence (A0A8I5ZN27 1-858 isoform A0A8I5ZN27-2, stated change not applied) above, with R657E counted along it
T3 sequence (Q00195 whole entry R538E): as the sequence (Q00195 whole entry T539M) above, with R538E, M539T counted along it
T3 sequence (Q64359 whole entry R430E): as the sequence (Q64359 whole entry R430E) above
T3 sequence (A0A8I5ZN27 1-858 isoform A0A8I5ZN27-2, stated change not applied): as the sequence (A0A8I5ZN27 1-858 isoform A0A8I5ZN27-2, stated change not applied) above
T2 sequence (Q00195 whole entry T539M): as the sequence (Q00195 whole entry T539M) above
T2 sequence (A0A8I5ZN27 1-858 isoform A0A8I5ZN27-2, stated change not applied): as the sequence (A0A8I5ZN27 1-858 isoform A0A8I5ZN27-2, stated change not applied) above
T6 sequence (Q00195 whole entry T539M): as the sequence (Q00195 whole entry T539M) above
T6 sequence (Q64359 whole entry R430E): as the sequence (Q64359 whole entry R430E) above
T6 sequence (A0A8I5ZN27 1-858 isoform A0A8I5ZN27-2 R657E): as the sequence (A0A8I5ZN27 1-858 isoform A0A8I5ZN27-2, stated change not applied) above, with R657E counted along it
T1 sequence (Q00195 whole entry R538E): as the sequence (Q00195 whole entry T539M) above, with R538E, M539T counted along it
T1 sequence (A0A8I5ZN27 1-858 isoform A0A8I5ZN27-2, stated change not applied): as the sequence (A0A8I5ZN27 1-858 isoform A0A8I5ZN27-2, stated change not applied) above

Row | Molecule | Ligand binding to CNGB1b [1] | binding to CNGB1b (in words) ([2]; 10 μM fcGMP, coexpressed with disabled CNGA2 (CNGA2TM)) | Ligand binding to CNGB1b ([2]; 10 μM, construct CNGA2TM:B1b) | binding to the CNGB1b subunit (in words) ([3]; 10 μM fcGMP, CNGB1b with CNGA4RE and CNGA2RE) | Ligand binding to CNGA4 [3, 12] | Ligand binding to CNGB1b [3, 12] | binding (in words) ([4]; 10 μM fcGMP, CNGB1bRE with CNGA2RE and CNGA4RE) | Ligand binding to CNGA4 [4, 13] | Ligand binding to CNGB1b [4, 13] | binding to the CNGB1b subunit (in words) ([5]; 10 μM fcGMP, CNGB1b with CNGA4RE and CNGA2TM) | Ligand binding to CNGA4 [5, 14] | Ligand binding to CNGB1b [5, 14] | Ligand binding to CNGA4 [6] | Ligand binding to CNGB1b [6] | degree of activation induced by binding to CNGA4 ([7]; CNGA2TM:A4 channels) | EC50 ([7]; in the presence of CNGA2TM only, read-out: EC50,h value for CNGA4) [µM] | Ligand binding to CNGA4 [8] | Ligand binding to CNGB1b [9] | Ligand binding to CNGA4 [10] | EC50 [11] [µM]
1 | 8-[DY-547]-AET-cGMP [fcGMP] | − | does not bind | − | robust binding | − | + | essentially diminished | − | − | robust binding | − | + | − | − | ~ 12% | 6.8 | − | − | − | 
2 | Nc1nc2c(ncn2[C@@H]2O[C@@H]3COP(=O)(O)O[C@H]3[C@H]2O)c(=O)[nH]1 [cGMP] |  |  |  |  |  |  |  |  |  |  |  |  |  |  |  |  |  |  |  | 607
